{"source": "patent EP1464336A1", "about": "“Use of tryprostatin A for the reversal of cancer drug resistance” (Humboldt-Universität zu Berlin, priority 2003, dated 2004)", "format_in_all_cases": "cell-based, human", "key": {"[1]": {"system": "MDR1 Pgp overexpressing subline (EPG85-257RDB)", "experiment": "C6-NBD-PS outward translocation assay", "details": "10 µM inhibitor; 30 minutes at 37°C (Fig. 8)", "protocol": "(§1) To measure redistribution of C6-NBD-PS from the cytoplasmic to the exoplasmic leaflet, labelling of the cytoplasmic leaflet is preconditional. Previously, we have introduced a method to achieve efficient labeling of the plasma membrane inner leaflet of the gastric carcinoma cell line EPG85-257 (Pohl, A., Lage, H., Müller, P., Pomorksi, T., and Herrmann. A. (2002) Biochem. J. 365, 259-268). Briefly, cells were preincubated with or without MDR inhibitors, labelled with 5 µM C6-NBD-PS, and incubated at 20°C for 30 minutes to allow inward movement of the NBD analogue. C6-NBD-PS remaining on the cell surface was extracted twice by incubation with 2% (w/v) BSA in mPBS for 10 minutes on ice. Before starting the outward translocation assay, the medium was removed, and cells were washed with ice-cold mPBS. For t=0', ice-cold medium containing 2% (w/v) BSA and 5 mM DFP ( = diisopropyl fluoro-phosphate) in mPBS with or without inhibitor was immediately added to the cell dish for 10 minutes. To measure C6-NBD-PS outward translocation, medium prewarmed to 37°C was added to the dish, and cells were incubated at 37°C for 30 minutes (t = 30'). Removal of the BSA-containing media and a second extraction with 2% BSA in mPBS for 10 minutes terminated incubations, followed by lipid analysis.\n(§2) After the incubations, the second BSA back exchange medium was pooled with the first, and cells scraped into mPBS. For analysis of outward translocation and of metabolic conversion of C6-NBD-PS, lipids from both scraped cells and media were extracted with isopropanol/chloroform/(5.5:1, v/v) to prevent substantial loss into the aqueous phase. Samples were centrifuged at 780 g for 5 minutes, the supernatant transferred into new glass tubes and dried, dissolved in chloroform/methanol (1:1) and quantified spectroscopically. For C6-NBD-PC analysis, lipids from both cells and incubation media were extracted by the method of Bligh and Dyer (Bligh, E., and Dyer, W. (1959) Can. J Biochem. Physiol. 37, 911-917) using 20 mM acetic acid in the aqueous phase. After 2-D separation [I, chloroform/methanol/25% ammonium hydroxide (65:25:4, v/v); II, chloroform/acetone/methanol/acetic acid/water (10:4:2:2:1, v/v)] on thin layer chromatography plates, fluorescent lipid spots were visualized under ultraviolet light, scraped, and quantified as described before (Pomorski, T., Müller, P., Zimmermann, B., Burger, K., Devaux, P., and Herrmann, A. (1996) J. Cell Sci. 109, 687-698)."}, "[2]": {"system": "BCRP overexpressing cells (EPG85-257RNOV)", "experiment": "C6-NBD-PS outward translocation assay", "details": "pretreatment with 10 µM inhibitor; 30 minutes at 37°C (Fig. 8)", "protocol": "as §1, §2"}, "[3]": {"system": "control cells (EPG85-257P)", "experiment": "C6-NBD-PS outward translocation assay", "details": "10 µM inhibitor; 30 minutes at 37°C (Fig. 8)", "protocol": "as §1, §2"}, "[4]": {"system": "MCF-7 breast cancer-derived cell variants", "experiment": "Cytotoxicity of the MDR modulator alone (SRB proliferation assay)", "protocol": "Modulation of chemoresistance was tested using a proliferation assay based on sulforhodamine B (SRB), a protein-binding reagent (Skehan P et al., J Natl Cancer Inst 1990;82:1107-12), as described in Lage H et al., Int J Hyperthermia 2000;16:291-303; Lage H et al., FEBS Lett 2001;503:179-84; Lage H et al., FEBS Lett 2001;494:54-9. In each experiment, 350 cells per well were seeded in the presence or absence of TPS-A in 96-well plates in complete medium and allowed to attach overnight. Mitoxantrone or daunorubicin were added in a dilution series in triplicate wells. After 5 days, when unselected wells were still subconfluent, incubation was terminated by replacing the medium with 10 % trichloroacetic acid, followed by incubation at 4 °C for 1 h. After samples were washed 5 times with water and air-dried, 50 µl 0.4 % SRB (Sigma, St. Louis, MO) in 1 % acetic acid was added and samples were incubated for 10 min at room temperature. […] After air-drying and re-solubilisation of the protein-bound dye in 10 mM Tris-HCl (pH 8.0), absorbance was quantified at 562.5 nm. […] Linear regression of data was done for the linear part of the curve, and IC50-values were calculated from multiple, at least three independent experiments for each cell line.\n(§3) The cytotoxicity of the MDR modulators TPS-A and GF120918 on drug-sensitive and drug-resistant gastric and breast cancer cell lines was initially assessed."}, "[5]": {"system": "drug-sensitive and drug-resistant gastric and breast cancer cell lines", "experiment": "Cytotoxicity of the MDR modulators alone (SRB proliferation assay)", "details": "for growth inhibitory effect / cytotoxic side effects: 10 µM TPS-A alone, any of the drug-sensitive or drug-resistant cancer cell lines tested", "protocol": "(§4) Modulation of chemoresistance was tested using a proliferation assay based on sulforhodamine B (SRB), a protein-binding reagent (Skehan P et al., J Natl Cancer Inst 1990;82:1107-12), as described in Lage H et al., Int J Hyperthermia 2000;16:291-303; Lage H et al., FEBS Lett 2001;503:179-84; Lage H et al., FEBS Lett 2001;494:54-9. In each experiment, 350 cells per well were seeded in the presence or absence of TPS-A in 96-well plates in complete medium and allowed to attach overnight. Mitoxantrone or daunorubicin were added in a dilution series in triplicate wells. After 5 days, when unselected wells were still subconfluent, incubation was terminated by replacing the medium with 10 % trichloroacetic acid, followed by incubation at 4 °C for 1 h. After samples were washed 5 times with water and air-dried, 50 µl 0.4 % SRB (Sigma, St. Louis, MO) in 1 % acetic acid was added and samples were incubated for 10 min at room temperature. Unbound dye was eliminated by washing the plates 5 times with 1 % acetic acid. After air-drying and re-solubilisation of the protein-bound dye in 10 mM Tris-HCl (pH 8.0), absorbance was quantified at 562.5 nm. To determine the IC50-value, the absorbance difference of control cells without drug was set to be 100 %. Linear regression of data was done for the linear part of the curve, and IC50-values were calculated from multiple, at least three independent experiments for each cell line.\nas §3"}, "[6]": {"system": "gastric and breast carcinoma cell variants", "experiment": "Modulation of chemoresistance to mitoxantrone or daunorubicin (SRB proliferation assay, IC50/DMF)", "protocol": "as §4\nThe cellular sensitivity to mitoxantrone and daunorubicin was assessed by determining the IC50 values without or with increasing concentrations of TPS-A or GF120918 as a positive control in the different cancer cell variants. Table 1 presents the data of TPS-A reversal of mitoxantrone and daunorubicin resistance in different gastric and breast carcinoma cell variants, respectively. […] In each case, the equation DMF=(IC50 (-CS))/(IC50 (+CS)) [formula] was used to calculate the dose modifying factor (DMF), comparing the IC50 values in the presence (+CS) or absence (-CS) of the corresponding chemosensitizer (CS) TPS-A or GF120918."}}, "note": "Entries after “also recorded” stand apart in the source; their conditions may differ."}
{"smiles": "COc1ccc2c(C[C@@H]3NC(=O)[C@@H]4CCCN4C3=O)c(CC=C(C)C)[nH]c2c1", "note": "[TPS-A, tryprostatin A]", "values": [{"measurement": "PS analogue outward translocation (MDR1 Pgp lipid transport activity)", "setting": "[1]", "value": "did not affect"}, {"measurement": "amount of C6-NBD-PS in the BSA containing medium (outward translocation)", "setting": "[2]", "value": "sharp and highly significant decrease"}, {"measurement": "PS transport (C6-NBD-PS outward translocation)", "setting": "[3]", "value": "did not affect PS transport significantly"}, {"measurement": "effect on the cell proliferation", "setting": "[4]; 50 µM TPS-A alone in the cell culture medium", "value": "without any effect on the cell proliferation; also recorded: did not show any cytotoxic or growth-inhibiting effects"}, {"measurement": "concentration necessary to obtain a level of drug sensitivity beyond that found for 1 µM GF120918", "setting": "[4]; MCF-7-derived breast cancer model system", "value": 50, "unit": "µM"}, {"measurement": "growth inhibitory effect / cytotoxic side effects", "setting": "[5]", "value": "no growth inhibitory effect"}, {"measurement": "growth inhibitory effect / cytotoxic side effects", "setting": "[5]; listed as tryprostatin A", "value": "without showing any cytotoxic side effects"}, {"measurement": "cytotoxicity", "setting": "[5]; TPS-A concentration range 1-100 µM", "value": "does not show any cytotoxicity"}, {"measurement": "cross-resistance to the MDR modulator", "setting": "[5]; multidrug-resistant tumor cell lines", "value": "No evidence of cross-resistance"}, {"measurement": "sensitization to treatment with mitoxantrone", "setting": "[6]; TPS-A, BCRP-expressing gastric and breast cancer cells (Table 1, Figure 2A)", "value": "dose-depending sensitization"}, {"measurement": "effect on sensitivity to daunorubicin", "setting": "[6]; increasing concentrations of TPS-A, drug-sensitive, P-gp- or BCRP-expressing carcinoma cells (Table 1, Figure 2B)", "value": "No significant effect"}]}
